Assay [1] relates to T-Rex 293 cell line SC3 cells lacking increased expression of androgen receptor protein. The assay can be described thus: Cellular growth inhibition, T-Rex 293 SC3 cells without doxycycline. It counts as cell-based. The following applies: not exposed to doxycycline, 72 hours, CellTiter-Glo 2.0. Summed up:
(§1)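 Doxycycline (10 ng/mL) was either included or omitted to toggle wild-type androgen receptor expression in SC3 cells, a T-Rex 293 clone, grown in stripped-serum, phenol red-free medium. After 72 hours with compound, viable cells were quantified by CellTiter-Glo 2.0.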
In general terms: In ATP-based viability assays light output follows the ATP content of the culture.

Assay [2] deals with T-Rex 293 cell line SC3 cells having increased expression of androgen receptor protein. Briefly: Cellular growth inhibition, T-Rex 293 SC3 cells with doxycycline (increased androgen receptor expression). It counts as cell-based. The settings on record: with 10 ng/mL doxycycline (increased androgen receptor), 72 hours, CellTiter-Glo 2.0. Summed up:
as §1

The target of the next assay is T1, androgen receptor (Homo sapiens, UniProt P10275).
T1 construct: endogenous in cells; host or cells: unnamed cells (cytosol fraction)
T1 sequence (P10275 1-920): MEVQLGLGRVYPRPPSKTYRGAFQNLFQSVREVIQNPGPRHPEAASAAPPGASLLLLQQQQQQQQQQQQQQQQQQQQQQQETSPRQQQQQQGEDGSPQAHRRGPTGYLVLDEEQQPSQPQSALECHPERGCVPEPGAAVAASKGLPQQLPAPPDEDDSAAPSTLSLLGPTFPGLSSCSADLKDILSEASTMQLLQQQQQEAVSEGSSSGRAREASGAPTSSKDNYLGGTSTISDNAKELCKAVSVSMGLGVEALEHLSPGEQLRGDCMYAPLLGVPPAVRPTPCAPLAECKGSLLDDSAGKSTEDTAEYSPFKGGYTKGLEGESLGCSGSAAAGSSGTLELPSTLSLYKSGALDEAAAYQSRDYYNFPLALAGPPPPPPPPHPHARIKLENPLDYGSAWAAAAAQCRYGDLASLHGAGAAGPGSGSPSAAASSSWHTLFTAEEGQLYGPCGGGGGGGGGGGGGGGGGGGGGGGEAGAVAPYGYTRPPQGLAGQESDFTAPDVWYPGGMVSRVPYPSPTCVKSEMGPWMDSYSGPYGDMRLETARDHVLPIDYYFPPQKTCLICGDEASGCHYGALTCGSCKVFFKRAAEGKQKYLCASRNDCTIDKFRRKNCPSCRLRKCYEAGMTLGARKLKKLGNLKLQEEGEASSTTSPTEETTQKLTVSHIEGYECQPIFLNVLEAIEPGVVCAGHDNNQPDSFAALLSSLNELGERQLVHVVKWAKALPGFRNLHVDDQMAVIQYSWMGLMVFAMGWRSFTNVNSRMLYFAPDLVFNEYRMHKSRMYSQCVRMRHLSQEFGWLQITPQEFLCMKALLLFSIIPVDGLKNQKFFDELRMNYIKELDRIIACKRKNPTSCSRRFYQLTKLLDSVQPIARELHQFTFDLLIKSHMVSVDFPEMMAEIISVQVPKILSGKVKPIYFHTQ
The assay can be described thus: Binding affinity to androgen receptor ([3H]methyltrienolone radioligand, cell cytosol). The settings on record: Table 6. On the procedure: Fractions of cell cytosol ([…]) were incubated for 24 hr at 4° C. with 1 nM [^3H]methyltrienolone in the absence or presence of the test compound in a buffer containing 25 mM Hepes-Tris (pH 7.4), 1 mM EDTA, 10 mM Na2MoO4, 2 mM DTT, 5 μM triamcinolone acetonide, and 10% glycerol. Nonspecific binding was determined in the presence of 1 μM testosterone. Following incubation, the samples were filtered rapidly under vacuum through glass fiber filters (GF/B, Packard) presoaked with 0.3% PEI and rinsed several times with ice-cold 50 mM Tris-HCl using a 96-sample cell harvester (Unifilter, Packard). The filters were dried then counted for radioactivity in a scintillation counter (Topcount, Packard) using a scintillation cocktail (Microscint 0, Packard). The results are expressed as a percent inhibition of the control radioligand specific binding. The standard reference compound is testosterone, which is tested in each experiment at several concentrations to obtain a competition curve from which its IC50 is calculated.

A further assay deals with VCaP cells. Briefly: Cellular growth inhibition assay for VCaP cells. The following applies: Homo sapiens, 72 hours, CellTiter-Glo 2.0. It counts as cell-based.
In a further assay the target is T2, CDK9 (Homo sapiens, UniProt P50750).
T2 construct: made in house; host or cells: E. coli BL21-derived host (T7 phage) or HEK-293 ('BEK-293' [sic])
T2 sequence (P50750 whole entry): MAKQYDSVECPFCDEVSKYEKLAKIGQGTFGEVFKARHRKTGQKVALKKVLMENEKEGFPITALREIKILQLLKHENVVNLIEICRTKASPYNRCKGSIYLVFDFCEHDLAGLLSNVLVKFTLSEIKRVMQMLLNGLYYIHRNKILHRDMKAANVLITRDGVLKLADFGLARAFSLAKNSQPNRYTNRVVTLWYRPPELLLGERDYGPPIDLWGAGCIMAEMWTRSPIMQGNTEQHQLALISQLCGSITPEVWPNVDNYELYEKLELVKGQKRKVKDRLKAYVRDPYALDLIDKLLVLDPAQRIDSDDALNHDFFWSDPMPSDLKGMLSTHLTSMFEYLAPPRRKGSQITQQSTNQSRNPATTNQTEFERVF
Briefly: KdELECT binding assay, CDK9. The following applies: CDK9, Table 7. As to the method:
Compounds were tested using a KdELECT. Kinase-tagged T7 phage strains were prepared in an E. coli host derived from the BL21 strain. E. coli were grown to log-phase and infected with T7 phage and incubated with shaking at 32° C. until lysis. The lysates were centrifuged and filtered to remove cell debris. The remaining kinases were produced in BEK-293 cells and subsequently tagged with DNA for qPCR detection. Streptavidin-coated magnetic beads were treated with biotinylated small molecule ligands for 30 minutes at room temperature to generate affinity resins for kinase assays. The liganded beads were blocked with excess biotin and washed with blocking buffer (SeaBlock (Pierce), 1% BSA, 0.05% Tween 20, 1 mM DTT) to remove unbound ligand and to reduce non-specific binding. Binding reactions were assembled by combining kinases, liganded affinity beads, and test compounds in 1× binding buffer (20% SeaBlock, 0.17×PBS, 0.05% Tween 20, 6 mM DTT). Test compounds were prepared as 111× stocks in 100% DMSO. Kd values were determined using an 11-point 3-fold compound dilution series with three DMSO control points. All compounds for Kd measurements are distributed by acoustic transfer (non-contact dispensing) in 100% DMSO. The compounds were then diluted directly into the assays such that the final concentration of DMSO was 0.9%. All reactions performed in polypropylene 384-well plate. Each was a final volume of 0.02 mL. The assay plates were incubated at room temperature with shaking for 1 hour and the affinity beads were washed with wash buffer (lx PBS, 0.05% Tween 20). The beads were then re-suspended in elution buffer (lx PBS, 0.05% Tween 20, 0.5 μM nonbiotinylated affinity ligand) and incubated at room temperature with shaking for 30 minutes. The kinase concentration in the eluates was measured by qPCR.

For `CCc1cnn2c(NCc3ccc(OCCCN4CCN(CCCN(C)c5ncc(C(=O)N[C@H]6C(C)(C)[C@H](Oc7ccc(C#N)c(Cl)c7)C6(C)C)cn5)CC4)nc3)cc(N3CCCC[C@H]3CCO)nc12` [Compound I-6, N-((1r,3r)-3-(3-chloro-4-cyanophenoxy)-2,2,4,4-tetramethylcyclobutyl)-2-((3-(4-(3-((5-(((3-ethyl-5-((S)-2-(2-hydroxyethyl)piperidin-1-yl)pyrazolo[1,5-a]pyrimidin-7-yl)amino)methyl)pyridin-2-yl)oxy)propyl)piperazin-1-yl)propyl)(methyl)amino)pyrimidine-5-carboxamide], the GI50 was 0.1 to 1 µM in assay [1] and below 0.1 µM in assay [2]. Moreover, the equilibrium dissociation constant (Kd) at androgen receptor was below 0.05 µM.

Regarding `CCc1cnn2c(NCc3ccc(OCCCN4CCN(CCCOC5CCN(c6ncc(C(=O)N[C@H]7C(C)(C)[C@H](Oc8ccc(C#N)c(Cl)c8)C7(C)C)cn6)CC5)CC4)nc3)cc(N3CCCC[C@H]3CCO)nc12` [Compound I-11], the GI50 was 0.1 to 1 µM in assay [1], below 0.1 µM in assay [2] and below 0.1 µM with VCaP cells. On androgen receptor, the dissociation constant Kd is below 0.05 µM.

`CCc1cnn2c(N(C)Cc3ccc(OCCOCCOCCOCCOCCN(C)c4ncc(C(=O)N[C@H]5C(C)(C)[C@H](Oc6ccc(C#N)c(Cl)c6)C5(C)C)cn4)nc3)cc(N3CCCC[C@H]3CCO)nc12` [Compound I-12]: the dissociation constant Kd on CDK9 was above 2.5 µM; at androgen receptor it was below 0.05 µM. Further, the concentration for 50% growth inhibition (GI50) in assay [1] and in assay [2] was above 3.5 µM each time.

For `CCc1cnn2c(N(C)Cc3ccc(OCCOCCOCCOC4CCN(c5ncc(C(=O)N[C@H]6C(C)(C)[C@H](Oc7ccc(C#N)c(Cl)c7)C6(C)C)cn5)CC4)nc3)cc(N3CCCC[C@H]3CCO)nc12` [Compound I-25], the Kd on CDK9 was above 2.5 µM; on androgen receptor, below 0.05 µM. Also, the GI50 in assay [1] and in assay [2] was above 3.5 µM each time.

Take `CCc1cnn2c(NCc3ccc(OCCCCCCCCOC4CCN(c5ncc(C(=O)N[C@H]6C(C)(C)[C@H](Oc7ccc(C#N)c(Cl)c7)C6(C)C)cn5)CC4)nc3)cc(N3CCCC[C@H]3CCO)nc12` [Compound I-31]: the Kd at CDK9 and on androgen receptor was above 2.5 µM in each case. Moreover, the GI50 in assay [1] and in assay [2] was above 3.5 µM in each case.

Regarding `CCc1cnn2c(NCc3ccc(OCCCN4CCN(CC5CCN(c6cnc(C(=O)N[C@H]7C(C)(C)[C@H](Oc8ccc(C#N)c(Cl)c8)C7(C)C)nc6)CC5)CC4)nc3)cc(N3CCCC[C@@H]3CCO)nc12` [Compound I-58, N-((1r,3r)-3-(3-chloro-4-cyanophenoxy)-2,2,4,4-tetramethylcyclobutyl)-5-(4-((4-(3-((5-(((3-ethyl-5-((R)-2-(2-hydroxyethyl)piperidin-1-yl)pyrazolo[1,5-a]pyrimidin-7-yl)amino)methyl)pyridin-2-yl)oxy)propyl)piperazin-1-yl)methyl)piperidin-1-yl)pyrimidine-2-carboxamide], the GI50 is below 0.1 µM in assay [1], 0.1 to 1 µM in assay [2] and 0.1 to 1 µM in the assay on VCaP cells. In addition, the dissociation constant Kd on androgen receptor fell in the range of 0.5 to 2.5 µM.

As to `CCc1cnn2c(NCc3ccc(OCCOCCN(C)C45CC(N(C)c6ncc(C(=O)N[C@H]7C(C)(C)[C@H](Oc8ccc(C#N)c(Cl)c8)C7(C)C)cn6)(C4)C5)nc3)cc(N3CCCC[C@H]3CCO)nc12` [Compound I-83], the GI50 in assay [1] was below 0.1 µM; in assay [2], below 0.1 µM; in the assay on VCaP cells, 0.1 to 1 µM. The molecule also came in with a Kd at androgen receptor below 0.05 µM.

What is called GI50 is the concentration that inhibits growth by half. The low end stands for greater sensitivity of the cells, the high end for lower sensitivity of the cells. A word on the Kd: it is the free concentration of one partner at which half of the binding sites on the other are occupied at equilibrium, for simple one-to-one binding.
